Source: US20160271258A1, “Dual Peptide-Mediated Targeted Delivery System” (MUSC FOUNDATION FOR RESEARCH DEVELOPMENT, priority 2015, published 2016)
“Also recorded” adds a separate entry of the source. Where no end group is shown, it is not given here. [ ]: non-standard residue; d: D form.

How the values were obtained:
[1] = system: CAL 27 (high EGFR) and SCC-15 (low EGFR) oral cancer cells; test: Fluorescence microscopy of DY547-siCIP2A uptake in co-culture of high- and low-EGFR oral cancer cells; assay type: cell-based, human; conditions: co-culture CAL 27 and SCC-15, 4 hours, 100 nM D-siCIP2A
Experimental: (§1) Fluorescence microscopy analysis was performed after co-culture of CAL 27 (high EGFR) and SCC-15 (low EGFR) oral cancer cells incubated for 4 hours with 100 nM of DY547-conjugated siRNA targeting CIP2A (D-siCIP2A; red) in complex with GE11R9 peptide at 100:1 and 60:1 (GE11R9:siRNA) molar ratios. SCC-15 cells were stained for vimentin (green) and nuclei (blue) were counterstained with DAPI.
as §1, with “of the” for “was performed after”, “and 599 peptides” for “peptide”, “various” for “100:1 and 60:1 (GE11R9:siRNA)”, “ratios (FIGS. 3A & 3B).” for “ratios.”, “DAPI” for “DAPI.”

[2] = system: CIP2A; test: Western blot analysis of CIP2A protein expression levels in CAL 27 OSCC cells; assay type: cell-based, human; conditions: CAL 27 cells, 48 hours post-treatment, 100 nM siCIP2A vs siNT
Experimental: Western blot analysis of CIP2A protein expression levels in CAL 27 OSCC cells was performed 48 hours post-treatment with GE11R9 peptide complexed to either 100 nM of siNT or siCIP2A at a 60:1 or 100:1 peptide-to-siRNA molar ratio compared to 599 peptide at a 50:1 molar ratio. β-Actin protein levels were monitored to ensure equal loading of samples.
FIG. 4 is a Western blot analysis of CIP2A protein expression levels in CAL 27 OSCC cells performed 48 hours post-treatment with dual peptide complexed to either 100 nM of siNT or siCIP2A at various GE11R9:599:siRNA molar ratios. β-Actin protein levels were monitored to ensure equal loading of samples.

GE11R9: EGFR-targeting peptide: GE11 sequence modified with a nona(D-arginine) stretch (R9) and a C-terminal Lysine (YHWYGYTPQNVIGGGG[dR][dR][dR][dR][dR][dR][dR][dR][dR]K)
targeting / specific uptake of siRNA into high-EGFR versus low-EGFR cells [1]: deliver siRNAs specifically to EGFR-overexpressing oral cancer cells; also recorded: specifically targets
delivery of bioactive siRNA (siCIP2A functionality, CIP2A protein expression) [2]: not capable of mediating the delivery of bioactive siRNAs; also recorded: does not deliver bioactive siRNAs; also recorded: not able to mediate the delivery of bioactive siRNAs
